Where “and” joins values, the source holds several entries; their conditions need not be identical. Identical values can stand only once.
What was measured:
[1] = molecular target: T1, human recombinant serotonin 5-HT2A receptor (Homo sapiens, UniProt P28223); assay: Serotonin 5-HT2A agonist/antagonist functional assay (calcium fluorescence, HEK-293); format: cell-based; conditions: antagonist mode
T1 construct: expressed in transfected cells; host or cells: HEK-293 cells
Description: To determine for agonist or antagonist activity of compounds of the invention in functional assays, human recombinant serotonin 5-HT2A receptor expressed in human embryonic kidney (HEK-293) cells (Jerman J C, Brough S J, Gager T, Wood M, Coldwell M C, Smart D and Middlemiss D N. Eur J Pharmacol, 414: 23-30, 2001) was used. Cells were suspended in DMEM buffer, and distributed in microplates. A cytoplasmic calcium fluorescent indicator which varies proportionally to the free cytosolic Ca^2+ ion concentration was mixed with probenicid in HBSS buffer complemented with 20 mM Hepes (pH 7.4), added into each well and equilibrated with the cells for 30 min at 37° C. followed by 30 min at 22° C. […]
The standard reference antagonist was ketanserin, which was tested in each experiment at several concentrations to generate a concentration-response curve from which its IC50 value was calculated.

[2] = molecular target: T2, human recombinant dopamine D2L receptor (Homo sapiens, UniProt P14416); assay: Dopamine D2L antagonist activity ([35S]GTPγS binding, SPA); format: biochemical; conditions: for Antagonist Activity As Measured by % Inhibition D2L / inhibition at 0.03 µM / inhibition at 0.1 µM / inhibition at 0.3 µM: two values = assay run twice; for inhibition at 0.03 µM / inhibition at 0.1 µM / inhibition at 0.3 µM / inhibition at 1 µM / inhibition at 3 µM: read-out: Antagonist Activity As Measured by % Inhibition D2L
T2 construct: expressed in transfected cells; host or cells: CHO cells
Experimental: To determine for agonist or antagonist activity of compounds of the invention in functional assays, human recombinant dopamine D2L receptor stably expressed in Chinese hamster ovary (CHO) cells (Senogles S E et al. J Biol Chem. 265(8): 4507, 1990) was used. Compounds of invention were pre-incubated with the membranes (0.1 mg/ml) and […] in modified HEPES buffer (20 mM HEPES, pH 7.4, 100 mM NaCl, 10 mM MgCl2, 1 mM DTT, 1 mM EDTA) for 20 minutes and Scintillation Proximity Assay (SPA) beads were added for another 60 minutes at 30° C. The reaction was initiated by 0.3 nM [^35S]GTPγS for an additional 15 minute incubation period. […] Compounds were screened at 3 μM or lower, using 0.4% DMSO as vehicle. Assay results are presented as the percent response of specific binding in Table 8.

C57BL/6 mice = assay: Recognition of a new location of the known object (spatial memory); format: in vivo
Description: The object recognition test is based on the fact that mice and rats spontaneously explore new object or location of a known object a lot longer than the know object or a known location of an object. This test was first used in rats (Ennaceur A., Delacour J., 1988). It was further shown by others that this type of memory testing is suitable for mice (Dodart J. et al. 1997, Messier C. 1997, Pittenger C. et al., 2002, Ryabinin A. et al., 2002, Sargolini F. et al., 2003). The method of recognition of an object is divided in two stages. The first one involves the recognition of a new location of a known object, which is used to assess spatial memory. The second one includes a test for recognition of a new in order to evaluate the non-spatial memory (Gaffan D., 1992, Kolb B. et al., 1994, Steckler T., 1998). Currently, both are widely used to determine the effectiveness of newly synthesized drugs on memory.
All experiments were carried out on 3-4 months old males (C57BL/6 line) 22-26 g weight with 10 animals in each group. All animals were kept in the animal facility (5 animals per cage) on the 12×12 hours light cycle (8 am-8 pm) with free access to food and water. […] Brown glass vials were used as test objects which are 2.7 cm in diameter (1.1 inch) and 5.5 cm high (2.2 inch). All vials were treated with 85% ethanol 2-3 minutes before each testing. Animals were placed in the center of the chamber.
Dimebon and compounds of the invention were dissolved in distilled water and administered orally at 0.05 mL per 10 g of animal mass 1 hour before the training exercise. All animals in the control group were treated with the equivalent dose of vehicle. The testing was performed 48 hours after the training exercise because animals forget the location of the object during the 48-hour resting time.
On the first day animals were brought in the testing room so that they could adapt to the testing environment for 20-30 min. Subsequently, each animal was placed in the empty testing chamber for 10 min, which was wiped with alcohol beforehand. After that animals were transferred back into the […] and returned to the animal facility.
The next day after habituation, the animals were brought back into the testing room where they were weighed and injected with the testing compound. An hour after injection, each animal was placed into the testing camber which had two identical objects that were positioned 14.5 cm (5.7 inches) from the corners on the diagonal. The training exercise lasted for 15 min for each animal. Subsequently, each animal was placed back into the cage and returned into the animal house.
The testing procedure was performed 48 hours after the training exercise. During the procedure two objects were used as in the training exercise. […] The amount of time that each animal spent on exploration each object was determined with 0.1 sec accuracy using two electronic stopwatches for total of 10 min. […] The survey of the object was counted as positive if the nose of an animal was pointed within 2 cm or if the animal was touching the objected directly with the nose.
Due to fair differences in the amount of time that each animal surveyed the object, the percentage of the survey time for each animal was determined using this formula: tNL/(tFL+tNL)×100 (where t is time, NL—new location(object), and FL—familiar location(object)). […] Subsequently, the statistical significance was analyzed using a Student's t-test criteria.

T1 sequence (P28223 whole entry): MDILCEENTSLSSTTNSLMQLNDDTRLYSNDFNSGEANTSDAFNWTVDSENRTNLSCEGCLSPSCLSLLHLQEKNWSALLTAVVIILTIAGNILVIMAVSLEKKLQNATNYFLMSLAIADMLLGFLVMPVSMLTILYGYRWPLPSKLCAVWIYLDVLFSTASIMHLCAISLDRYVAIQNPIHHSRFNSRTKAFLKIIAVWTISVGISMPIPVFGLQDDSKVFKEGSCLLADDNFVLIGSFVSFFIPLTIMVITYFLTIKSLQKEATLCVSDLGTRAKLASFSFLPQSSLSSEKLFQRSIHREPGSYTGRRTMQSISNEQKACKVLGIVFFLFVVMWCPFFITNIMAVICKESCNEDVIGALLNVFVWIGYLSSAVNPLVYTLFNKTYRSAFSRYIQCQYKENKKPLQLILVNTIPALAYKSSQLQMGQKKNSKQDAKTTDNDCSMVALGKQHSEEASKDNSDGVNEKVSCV
T2 sequence (P14416 whole entry): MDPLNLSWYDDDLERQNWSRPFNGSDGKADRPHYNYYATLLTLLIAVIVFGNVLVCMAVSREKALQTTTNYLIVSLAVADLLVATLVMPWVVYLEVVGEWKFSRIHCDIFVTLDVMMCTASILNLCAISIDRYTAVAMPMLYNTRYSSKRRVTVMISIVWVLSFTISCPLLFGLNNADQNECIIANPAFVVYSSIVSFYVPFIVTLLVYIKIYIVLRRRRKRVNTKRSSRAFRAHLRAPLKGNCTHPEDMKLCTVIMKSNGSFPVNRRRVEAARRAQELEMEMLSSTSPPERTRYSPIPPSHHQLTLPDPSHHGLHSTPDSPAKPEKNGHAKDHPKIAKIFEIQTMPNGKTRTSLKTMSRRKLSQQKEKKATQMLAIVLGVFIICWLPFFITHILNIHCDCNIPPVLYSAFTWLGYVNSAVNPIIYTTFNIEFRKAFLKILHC

Row | Structure (SMILES) | % of Control Agonist Response, 1st Assay ([1]; test concentration 1.00E−07 M) | % of Control Agonist Response, 2nd Assay ([1]; test concentration 1.00E−07 M) | % of Control Agonist Response, Mean ([1]; test concentration 1.00E−07 M) | % of Control Agonist Response, Mean ([1]; test concentration 3.00E−06 M) | % of Control Agonist Response, 2nd Assay ([1]; test concentration 3.00E−07 M) | % of Control Agonist Response, 1st Assay ([1]; test concentration 3.00E−08 M) | % of Control Agonist Response, 2nd Assay ([1]; test concentration 3.00E−08 M) | % of Control Agonist Response, Mean ([1]; test concentration 3.00E−08 M) | Antagonist Activity As Measured by % Inhibition D2L ([2]; 0.03 uM) | inhibition at 0.03 µM ([2]; 0.03 uM) | inhibition at 0.1 µM ([2]; 0.1 uM) | Antagonist Activity As Measured by % Inhibition D2L ([2]; 0.3 uM) | inhibition at 0.3 µM ([2]; 0.3 uM) | inhibition at 1 µM [2] | inhibition at 3 µM [2] | also measured
1 | CN1CCc2c(c3cc(Cl)ccc3n2CCc2ccccc2)C1 [Compound 36, 8-chloro-2,3,4,5-tetrahydro-2-methyl-5-phenethyl-1H-pyrido[4,3-b]indole] | 111% and 100% and 105% | 102% and 106% and 115% | 106.4% and 103% and 109.9% | 5.3% and 9.7% and 0.4% | 105% and 98% and 97% | 109% | 108% | 108.7% | 43% | 48% | 73% | 88% | 83% | 85% | 104% | % of Control Agonist Response, 1st Assay ([1]; test concentration 3.00E−07 M): 92% and 109%; % of Control Agonist Response, Mean ([1]; test concentration 3.00E−07 M): 98.8% and 94.8% and 102.8%; Antagonist Activity As Measured by % Inhibition D2L ([2]; 0.1 uM): 57%
2 | CN1CCc2c(c3ccccc3n2CCc2noc(-c3ccccc3)n2)C1 [Compound C4-1] |  |  |  |  |  |  |  |  |  |  |  |  |  |  |  | effect on memory in the recognition test of a known object in a new location (C57BL/6 mice; 0.05 mg/kg, 0.5 mg/kg, and 1 mg/kg): not significantly different from the control group; time exploring the object in a new location, % of the total time (C57BL/6 mice; 0.1 mg/kg): 61.3±6.9%; time exploring the object in the known position, % of the total time (C57BL/6 mice; 0.1 mg/kg): 38.7±6.9%
3 | COc1ccc(CCn2c3c(c4cc(C)ccc42)CN(C)CC3)cc1 [Compound 247] | 117% and 93% | 116% and 94% and 95% | 116.5% and 93.5% and 93.9% | −3.2% | 76% and 72% and 38% | 122% and 103% | 120% and 108% and 111% | 121.3% and 104.5% and 107% | 52% | 48% | 66% | 83% | 81% | 89% | 91% | % of Control Agonist Response, 1st Assay ([1]; test concentration 1.00E−06 M): −4% and −2% and 2%; % of Control Agonist Response, 2nd Assay ([1]; test concentration 1.00E−06 M): 0% and 3%; % of Control Agonist Response, Mean ([1]; test concentration 1.00E−06 M): −1.7% and 0.3% and 0.7%; % of Control Agonist Response, 1st Assay ([1]; test concentration 3.00E−06 M): −4%; % of Control Agonist Response, 2nd Assay ([1]; test concentration 3.00E−06 M): −3%
